Results on 24 molecules are retold here after ChEMBL document CHEMBL3044933, “Synthesis and insect antifeedant activity of aurones against Spodoptera litura larvae” (J Agric Food Chem, 2007).

Activity calls are given as the source filed them. No cut-off for these calls is given here.

The test system of series [1] is Spodoptera litura. Nature of the series: Antifeedant activity against Spodoptera litura in compound treated cork borer from fresh sweet potato leaves assessed as leaf disk consumed at 26.5 degC. The class given is functional.
The nature of series [2]: Lipophilicity, log k of the compound from retention time in ODS HPLC.
The test system of series [3] is Spodoptera litura. In words: Antifeedant activity against Spodoptera litura in compound treated cork borer from fresh sweet potato leaves assessed as leaf disk consumed at 0.33 mg/cm2 at 26.5 degC. The class given is functional.

Regarding `COc1cccc(/C=C2\Oc3ccccc3C2=O)c1` [3'-METHOXY-AURONE], in the series with Spodoptera litura [1], the ED50 amounted to 1.01 umol/cm2 and the pED50 is 6. In series [2], this molecule gave a log k of 0.737.
Turning to `COc1cc(/C=C2\Oc3ccccc3C2=O)cc(OC)c1OC`, the ED50 result in the series on Spodoptera litura [1] is “inactive”. The Activity in the series with Spodoptera litura [3] is less than 40%.
Regarding `C/C=C(/C)C(=O)O[C@H]1C[C@@H](OC(C)=O)[C@@]2(C)CO[C@H]3[C@H]4O[C@@H]5C[C@@H](c6ccoc6)C(C)=C5[C@@]4(C)[C@H](CC(=O)OC)[C@]1(C)[C@@H]32` [SALANNIN], in the series with Spodoptera litura [1], the ED50 amounted to 0.066 umol/cm2 and the pED50 is 7.18.
For the molecule `O=C1/C(=C/c2cccc(Cl)c2)Oc2ccccc21`, the ED50 entry with Spodoptera litura [1] was “inactive”. For the same molecule, the Activity in the series on Spodoptera litura [3] is less than 40%.
Take `COc1ccc(/C=C2\Oc3cc(C)cc(C)c3C2=O)cc1OC`: in the series with Spodoptera litura [1], the ED50 is on record as 1.02 umol/cm2 and the pED50 is given as 5.99.
`COc1ccc(/C=C2\Oc3cc(OC)c(OC)c(OC)c3C2=O)cc1OC`: the ED50 entry in the series with Spodoptera litura [1] was “inactive”. Moreover, in the series with Spodoptera litura [3], the Activity is less than 40%.
Taken in the same sequence, the figures for `COc1cc(OC)c2c(c1)O/C(=C\c1ccc(C)c(C)c1)C2=O` were “inactive” and less than 40%.
For `COc1ccc(/C=C2\Oc3ccccc3C2=O)cc1OC` [3',4'-DIMETHOXY-AURONE], in the series with Spodoptera litura [1], the ED50 worked out at 0.86 umol/cm2 and the pED50 is 6.07. Further, the log k in series [2] came out at 0.741.
For the molecule `O=C1COc2ccccc21` [3-COUMARANONE], in the series with Spodoptera litura [1], the ED50 entry was “inactive”. For the same molecule, the Activity in the series on Spodoptera litura [3] was less than 40%.
`O=C1/C(=C/c2ccc3c(c2)OCO3)Oc2ccccc21`: in the series with Spodoptera litura [1], the ED50 amounted to 1.61 umol/cm2 and the pED50 amounted to 5.79. The molecule further returned a log k in series [2] of 0.624.
The corresponding values for `COc1ccc(/C=C2\Oc3ccccc3C2=O)cc1` [4'-METHOXY-AURONE] are 2.03 umol/cm2, 5.69 and 0.689.
Taken in the same sequence, the figures for `COc1cc(/C=C2\Oc3ccccc3C2=O)cc(OC)c1` were 3.45 umol/cm2, 5.46 and 0.741.
With `Cc1cc(C)c2c(c1)OCC2=O` [4,6-DIMETHYLCOUMARANONE], in the series with Spodoptera litura [1], the ED50 is 0.68 umol/cm2 and the pED50 was 6.17.
In the case of `COc1cc(OC)c2c(c1)O/C(=C\c1ccccc1)C2=O`, in the series with Spodoptera litura [1], the ED50 was 0.85 umol/cm2 and the pED50 amounted to 6.07. The molecule also gave a log k in series [2] of 0.56.
On to `Cc1cc(C)c2c(c1)O/C(=C\c1ccc(C)c(C)c1)C2=O`, for which the ED50 entry in the series with Spodoptera litura [1] was “inactive”. In the series with Spodoptera litura [3], the Activity is less than 40%.
Taken in the same sequence, the figures for `O=C1/C(=C/c2ccc(O)c(O)c2)Oc2ccccc21` were “inactive” and less than 40%.
With `COc1cc(OC)c2c(c1)O/C(=C\c1ccc(OC)c(OC)c1)C2=O` [4,6,3',4'-TETRAMETHOXYAURONE], in the series on Spodoptera litura [1], the ED50 is listed as 0.12 umol/cm2 and the pED50 was 6.92. The same molecule gave a log k in series [2] of 0.277.
Regarding `COc1ccccc1/C=C1\Oc2ccccc2C1=O` [(Z)-2'-METHOXYAURONE], in the series with Spodoptera litura [1], the ED50 entry was “inactive”. The Activity with Spodoptera litura [3] was less than 40%.
Regarding `O=C1/C(=C/c2cccc(Br)c2)Oc2ccccc21`, in the series on Spodoptera litura [1], the ED50 is reported as 4.21 umol/cm2 and the pED50 is recorded as 5.38. For the same molecule, in series [2], the log k was 1.05.
For `COc1cc(/C=C2\Oc3ccccc3C2=O)ccc1O`, the ED50 entry in the series with Spodoptera litura [1] is “inactive”. Also, the Activity in the series with Spodoptera litura [3] was less than 40%.
With `COc1cc2c(c(OC)c1OC)C(=O)CO2` [4,5,6-TRIMETHOXYCOUMARANONE], in the series with Spodoptera litura [1], the ED50 is recorded as 0.41 umol/cm2 and the pED50 was found to be 6.39.
For the molecule `COc1cc(OC)c2c(c1)OCC2=O` [4,6-DIMETHOXYCOUMARANONE], in the series on Spodoptera litura [1], the ED50 came out at 3.87 umol/cm2 and the pED50 was determined as 5.41.
As to `CCOc1cc(/C=C2\Oc3ccccc3C2=O)ccc1O`, in the series on Spodoptera litura [1], the ED50 worked out at 1.96 umol/cm2 and the pED50 is listed as 5.71. Also, the log k in series [2] was determined as 0.382.
With `O=C1/C(=C/c2ccccc2)Oc2ccccc21` [(Z)-AURONE], the ED50 entry in the series with Spodoptera litura [1] is “inactive”. Further, the Activity with Spodoptera litura [3] is listed as less than 40%.
